From article PMC11365428 (The Journal of Biological Chemistry, 2024)
≈ marks a conversion by molar mass, not a printed value. Read-outs that look alike come from different tables or passages of the source. Blank lines part the entries; values can stand above or below the molecule they belong to. Non-standard residues stand in square brackets, D forms with d. Residues, ends and D or L forms follow the SMILES beside them. No end group written: not given here. pGlu = O=C1CC[C@@H](C(=O)O)N1

Key:
[1] = trifluoroacetate counter ion, ref ChinaPeptides Co., Ltd. certificate of analysis (Fig. S21), cited from earlier work
apTKRPR-B = target: T1, apTKRPR-B (Aplysia californica, UniProt A0AAU7STS1); test: IP1 accumulation assay, CHO-K1 cells transiently expressing apTKRPR-B; format: cell-based
T1 sequence (A0AAU7STS1 1-447): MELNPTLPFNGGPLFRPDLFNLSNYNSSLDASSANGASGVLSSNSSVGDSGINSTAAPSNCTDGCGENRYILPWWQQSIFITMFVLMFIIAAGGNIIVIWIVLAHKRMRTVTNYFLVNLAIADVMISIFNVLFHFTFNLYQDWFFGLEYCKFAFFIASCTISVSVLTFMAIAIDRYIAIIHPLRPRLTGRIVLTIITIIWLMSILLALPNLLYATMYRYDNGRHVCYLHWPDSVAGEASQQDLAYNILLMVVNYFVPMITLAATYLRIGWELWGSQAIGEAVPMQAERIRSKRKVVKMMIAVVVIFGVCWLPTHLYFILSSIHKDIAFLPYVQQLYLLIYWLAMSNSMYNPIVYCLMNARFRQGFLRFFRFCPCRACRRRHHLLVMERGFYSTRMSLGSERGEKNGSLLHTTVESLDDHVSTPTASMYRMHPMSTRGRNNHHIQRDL
Method: (§1) To express putative Aplysia receptors transiently in CHO-K1 cells, the cDNAs were subcloned into the pcDNA3.1(+) or pcDNA3.1(+)-FLAG (for ELISA experiments only, see “Cell surface expression analysis by ELISA” section) expression vector. On the day before transfection, the CHO-K1 cells were passaged into 60 mm diameter tissue culture–treated dishes, and the transfection experiments were performed when the cells were grown to 70 to 90% confluence. CHO-K1 cells were transfected with the cDNA plasmid constructs using Turbofect Transfection reagent (Thermo Fisher Scientific, R0531), following the manufacturer’s instructions. […] The DNA/TurboFect mixture dropwise was then added to the dish, and the cells were incubated at 37 °C in a humidified incubator containing 5% CO2 overnight.
(§2) On the third day, the activation of the putative receptors was detected by monitoring intracellular IP1 concentration using an IP-One Gq kit (Cisbio, 62IPAPEB) in Tecan Spark. Except for using 0.5x reagent, all other procedures were performed following the manufacturer’s instructions. IP1 accumulation assay measures the accumulation of IP1, which is hydrolyzed from the second messenger, and inositol triphosphate. Inositol triphosphate is generated by the Gαq pathway when a GPCR is activated by an appropriate ligand.

apTKRPR-A = target: T2, apTKRPR-A (Aplysia californica, UniProt A0AAU7SSZ1); test: IP1 accumulation assay, CHO-K1 cells transiently expressing apTKRPR-A; format: cell-based
T2 sequence (A0AAU7SSZ1 1-398): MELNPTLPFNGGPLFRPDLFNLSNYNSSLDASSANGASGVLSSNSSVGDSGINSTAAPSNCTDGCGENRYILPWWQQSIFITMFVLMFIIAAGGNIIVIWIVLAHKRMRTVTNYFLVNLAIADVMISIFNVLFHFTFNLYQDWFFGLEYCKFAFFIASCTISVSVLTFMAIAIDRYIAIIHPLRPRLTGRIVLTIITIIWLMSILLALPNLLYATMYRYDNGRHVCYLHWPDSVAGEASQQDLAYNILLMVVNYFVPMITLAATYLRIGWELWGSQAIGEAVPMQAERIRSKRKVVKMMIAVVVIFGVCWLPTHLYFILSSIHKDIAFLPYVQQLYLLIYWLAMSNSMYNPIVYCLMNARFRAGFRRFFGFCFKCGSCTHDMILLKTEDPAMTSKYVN
Method: as §1, §2

[2] = target: Aplysia tachykinin-related peptide receptor A (apTKRPR-A) (Aplysia californica)
[3] = target: Aplysia tachykinin-related peptide receptor B (apTKRPR-B) (Aplysia californica)
[4] = log10 of EC50 in M, negative, IP1 accumulation, CHO-K1, mean ± SD of at least three independent experiments (apTKRP-1 n = 9; apTKRP-2a n = 11; apTKRP-2b n = 19; analogs, apTKRP-2b-OH n = 4), read-out: apTKRPR-B log[EC50] (converted)
[5] = log10 of EC50 in M, negative, IP1 accumulation, CHO-K1, mean ± SD of at least three independent experiments (apTKRP-1 n = 9; apTKRP-2a n = 11; apTKRP-2b n = 19; analogs, apTKRP-2b-OH n = 4), read-out: apTKRPR-A log[EC50] (converted)

Molecule: CC(C)C[C@H](NC(=O)[C@H](Cc1c[nH]cn1)NC(=O)[C@H](C)NC(=O)[C@@H]1CCC(=O)N1)C(=O)NCC(=O)N[C@@H](Cc1ccccc1)C(=O)N[C@@H](Cc1c[nH]cn1)C(=O)NCC(=O)N[C@@H](CO)C(=O)N[C@@H](CCCNC(=N)N)C(N)=O [[Ala^2]apTKRP-2b] ([pGlu]AHLGFHGSR-NH2)
Solubility ([1]; in 15%ACN/85%H2O): 1000 µg/mL (≈ 916 µM)
EC50 (apTKRPR-B): 33.1 nM
EC50 (apTKRPR-A): 309 nM

Molecule: CC(C)C[C@H](NC(=O)[C@H](C)NC(=O)[C@@H]1CCCN1C(=O)[C@@H]1CCC(=O)N1)C(=O)NCC(=O)N[C@@H](Cc1ccccc1)C(=O)N[C@@H](Cc1c[nH]cn1)C(=O)NCC(=O)N[C@@H](CO)C(=O)N[C@@H](CCCNC(=N)N)C(N)=O [[Ala^3]apTKRP-2b] ([pGlu]PALGFHGSR-NH2)
Solubility ([1]; in 15%ACN/85%H2O): 1000 µg/mL (≈ 951 µM)
EC50 (apTKRPR-B): 32.4 nM
EC50 (apTKRPR-A): 295 nM

Molecule: C[C@H](NC(=O)[C@H](Cc1c[nH]cn1)NC(=O)[C@@H]1CCCN1C(=O)[C@@H]1CCC(=O)N1)C(=O)NCC(=O)N[C@@H](Cc1ccccc1)C(=O)N[C@@H](Cc1c[nH]cn1)C(=O)NCC(=O)N[C@@H](CO)C(=O)N[C@@H](CCCNC(=N)N)C(N)=O [[Ala^4]apTKRP-2b] ([pGlu]PHAGFHGSR-NH2)
Solubility ([1]; in 13%ACN/87%H2O): 1000 µg/mL (≈ 930 µM)
EC50 (apTKRPR-B): 1.7 nM
EC50 (apTKRPR-A): 9.77 nM

Molecule: CC(C)C[C@H](NC(=O)[C@H](Cc1c[nH]cn1)NC(=O)[C@@H]1CCCN1C(=O)[C@@H]1CCC(=O)N1)C(=O)N[C@@H](C)C(=O)N[C@@H](Cc1ccccc1)C(=O)N[C@@H](Cc1c[nH]cn1)C(=O)NCC(=O)N[C@@H](CO)C(=O)N[C@@H](CCCNC(=N)N)C(N)=O [[Ala^5]apTKRP-2b] ([pGlu]PHLAFHGSR-NH2)
Solubility ([1]; in 15%ACN/85%H2O): 1000 µg/mL (≈ 884 µM)
EC50 (apTKRPR-B): 537 nM
EC50 (apTKRPR-A): 1660 nM

Molecule: CC(C)C[C@H](NC(=O)[C@H](Cc1c[nH]cn1)NC(=O)[C@@H]1CCCN1C(=O)[C@@H]1CCC(=O)N1)C(=O)NCC(=O)N[C@@H](C)C(=O)N[C@@H](Cc1c[nH]cn1)C(=O)NCC(=O)N[C@@H](CO)C(=O)N[C@@H](CCCNC(=N)N)C(N)=O [[Ala^6]apTKRP-2b] ([pGlu]PHLGAHGSR-NH2)
Solubility ([1]; in 13%ACN/87%H2O): 1000 µg/mL (≈ 960 µM)
EC50 (apTKRPR-B): 537 nM
EC50 (apTKRPR-A): 1510 nM

EC50 (apTKRPR-A): 1070 nM
Molecule: CC(C)C[C@H](NC(=O)[C@H](Cc1c[nH]cn1)NC(=O)[C@@H]1CCCN1C(=O)[C@@H]1CCC(=O)N1)C(=O)NCC(=O)N[C@@H](Cc1ccccc1)C(=O)N[C@@H](C)C(=O)NCC(=O)N[C@@H](CO)C(=O)N[C@@H](CCCNC(=N)N)C(N)=O [[Ala^7]apTKRP-2b] ([pGlu]PHLGFAGSR-NH2)
Solubility ([1]; in 15%ACN/85%H2O): 1000 µg/mL (≈ 951 µM)

Molecule: CC(C)C[C@H](NC(=O)[C@H](Cc1c[nH]cn1)NC(=O)[C@@H]1CCCN1C(=O)[C@@H]1CCC(=O)N1)C(=O)NCC(=O)N[C@@H](Cc1ccccc1)C(=O)N[C@@H](Cc1c[nH]cn1)C(=O)N[C@@H](C)C(=O)N[C@@H](CO)C(=O)N[C@@H](CCCNC(=N)N)C(N)=O [[Ala^8]apTKRP-2b] ([pGlu]PHLGFHASR-NH2)
Solubility ([1]; in 15%ACN/85%H2O): 1000 µg/mL (≈ 884 µM)
EC50 (apTKRPR-B): 3.09 nM
EC50 (apTKRPR-A): 20.9 nM

Molecule: CC(C)C[C@H](NC(=O)[C@H](Cc1c[nH]cn1)NC(=O)[C@@H]1CCCN1C(=O)[C@@H]1CCC(=O)N1)C(=O)NCC(=O)N[C@@H](Cc1ccccc1)C(=O)N[C@@H](Cc1c[nH]cn1)C(=O)NCC(=O)N[C@@H](C)C(=O)N[C@@H](CCCNC(=N)N)C(N)=O [[Ala^9]apTKRP-2b] ([pGlu]PHLGFHGAR-NH2)
Solubility ([1]; in 15%ACN/85%H2O): 1000 µg/mL (≈ 908 µM)
EC50 (apTKRPR-B): 17.4 nM
EC50 (apTKRPR-A): 195 nM

Molecule: CC(C)C[C@H](NC(=O)[C@H](Cc1c[nH]cn1)NC(=O)[C@@H]1CCCN1C(=O)[C@@H]1CCC(=O)N1)C(=O)NCC(=O)N[C@@H](Cc1ccccc1)C(=O)N[C@@H](Cc1c[nH]cn1)C(=O)NCC(=O)N[C@@H](CO)C(=O)N[C@@H](C)C(N)=O [[Ala^10]apTKRP-2b] ([pGlu]PHLGFHGSA-NH2)
Solubility ([1]; in 15%ACN/85%H2O): 1000 µg/mL (≈ 969 µM)
EC50 (apTKRPR-B): > 10000 nM
EC50 (apTKRPR-A): > 10000 nM

Molecule: CC(C)C[C@H](NC(=O)[C@H](Cc1c[nH]cn1)NC(=O)[C@@H]1CCCN1C(=O)[C@@H]1CCC(=O)N1)C(=O)NCC(=O)N[C@@H](Cc1ccccc1)C(=O)N[C@@H](Cc1c[nH]cn1)C(=O)NCC(=O)N[C@@H](CO)C(=O)N[C@@H](CCCNC(=N)N)C(=O)O [apTKRP-2b-OH] ([pGlu]PHLGFHGSR-OH)
EC50 (apTKRPR-B; IP1 accumulation, CHO-K1, from average log[EC50], read-out: apTKRPR-B [EC50]): > 10000 nM
EC50 (apTKRPR-B; [4]): > 10000 nM
EC50 (apTKRPR-A; IP1 accumulation, CHO-K1, from average log[EC50], read-out: apTKRPR-A [EC50]): > 10000 nM
EC50 (apTKRPR-A; [5]): > 10000 nM

Molecule: FKPSGFMGSR-NH2 [apTKRP-1]
EC50 (apTKRPR-B; [4]): 24.5 nM
EC50 (apTKRPR-A; [5]): 145 nM

EC50 of IP1 accumulation in CHO-K1 cells expressing the receptor [2]: > 10000 nM
EC50 of IP1 accumulation in CHO-K1 cells expressing the receptor [3]: > 10000 nM
B1: apTKRP-2b analog with Lys instead of Gly at position eight (peptide)
peptide: [pGlu]PHLGFHKSR-NH2
SMILES: CC(C)C[C@H](NC(=O)[C@H](Cc1c[nH]cn1)NC(=O)[C@@H]1CCCN1C(=O)[C@@H]1CCC(=O)N1)C(=O)NCC(=O)N[C@@H](Cc1ccccc1)C(=O)N[C@@H](Cc1c[nH]cn1)C(=O)N[C@@H](CCCCN)C(=O)N[C@@H](CO)C(=O)N[C@@H](CCCNC(=N)N)C(N)=O

EC50 of IP1 accumulation in CHO-K1 cells expressing the receptor [2]: > 10000 nM
EC50 of IP1 accumulation in CHO-K1 cells expressing the receptor [3]: > 10000 nM
B2: apTKRP-2b analog with Asp instead of Gly at position eight (peptide)
peptide: [pGlu]PHLGFHDSR-NH2
SMILES: CC(C)C[C@H](NC(=O)[C@H](Cc1c[nH]cn1)NC(=O)[C@@H]1CCCN1C(=O)[C@@H]1CCC(=O)N1)C(=O)NCC(=O)N[C@@H](Cc1ccccc1)C(=O)N[C@@H](Cc1c[nH]cn1)C(=O)N[C@@H](CC(=O)O)C(=O)N[C@@H](CO)C(=O)N[C@@H](CCCNC(=N)N)C(N)=O

EC50 of IP1 accumulation in CHO-K1 cells expressing the receptor [2]: > 10000 nM
EC50 of IP1 accumulation in CHO-K1 cells expressing the receptor [3]: > 10000 nM
B3: apTKRP-2b analog with Leu instead of Gly at position eight (peptide)
peptide: [pGlu]PHLGFHLSR-NH2
SMILES: CC(C)C[C@H](NC(=O)[C@H](Cc1c[nH]cn1)NC(=O)[C@@H]1CCCN1C(=O)[C@@H]1CCC(=O)N1)C(=O)NCC(=O)N[C@@H](Cc1ccccc1)C(=O)N[C@@H](Cc1c[nH]cn1)C(=O)N[C@@H](CC(C)C)C(=O)N[C@@H](CO)C(=O)N[C@@H](CCCNC(=N)N)C(N)=O
